In the experiment the target is human Autotaxin protein (Homo sapiens, UniProt Q13822). As to the kind of experiment: Evaluation of the inhibitory activity against human Autotaxin protein (18:1 LysoPC substrate, choline assay kit, absorbance at 570 nm). It counts as biochemical. The conditions noted are these: at 500nM compound, 2 hours at 37 °C, read-out: Inhibition rate (%, at 500nM). The method, then: Solutions of each synthesized compound (80 uM, 100% dimethyl sulfoxide) were sequentially diluted 5-fold with dimethyl sulfoxide to prepare 6 concentrations. Each concentration of the compound was diluted 2-fold with 1x test buffer (50 mM Tris-Cl (pH 8.0), 5 mM KCl, 1 mM CaCl2, 1 mM MgCl2, 140 mM NaCl, deionized water, 1 mg/mL BSA), and 1 uL (1.25% dimethylsulfoxide) of the diluted mixture was dispensed into each well of a 96-well clear round-bottom plate. 9 uL of 1x test buffer was added, and 20 uL of 240 nM human autotaxin protein (buffer: 50 mM Tris-HCl, pH 8.0, with 150 mM sodium chloride and 20% glycerol) was added. 10 uL of sonicated 360 uM 18:1 LysoPC (diluted with 1x assay buffer) was added. The reaction was performed for 2 hours in a shaking incubator at 37 °C, and a secondary reaction mixture (choline assay kit, KA1662) (65 uL of 1x assay buffer: 1 uL of choline oxidase: 1 uL of dye probe) was prepared. 60 uL of the secondary reaction mixture was added to the plate where the reaction was performed, and incubated for 30 minutes in a shaker. The absorbance value was measured at a wavelength of 570 nm using a SpectraMax iD3 microplate reader. The percentage inhibition activity value (% inhibition) was calculated by the formula: (1 - absorbance value test group / absorbance value control group) X 100.

Consider `Clc1ccc(CCNc2ncc(C3CC(N4C[C@@H]5[C@H](C4)[C@H]5c4cnn[nH]4)=NO3)cn2)cc1` (stereo partly drawn) [Example 49, 5-(3-((1R,5S,6r)-6-(1H-1,2,3-Triazol-5-yl)-3-azabicyclo[3.1.0]hexan-3-yl)-4,5-dihydroisoxazol-5-yl)-N-(4-chlorophenethyl)pyrimidin-2-amine], for which the inhibition at 0.5 µM was 76.4%.
The result for `c1ccc2c(c1)CC(Nc1ncc(C3CC(N4C[C@@H]5[C@H](C4)[C@H]5c4cnn[nH]4)=NO3)cn1)C2` (stereo partly drawn) [Example 50, 5-(3-((1R,5S,6r)-6-(1H-1,2,3-Triazol-5-yl)-3-azabicyclo[3.1.0]hexan-3-yl)-4,5-dihydroisoxazol-5-yl)-N-(2,3-dihydro-1H-inden-2-yl)pyrimidin-2-amine] reads 95.5%; that for `O=C(O)C[C@@H]1[C@H]2CN(c3nnc(-c4cnc(NCCc5ccc(Cl)cc5)nc4)o3)C[C@@H]12` [Example 51, 2-((1R,5S,6s)-3-(5-(2-((4-Chlorophenethyl)amino)pyrimidin-5-yl)-1,3,4-oxadiazol-2-yl)-3-azabicyclo[3.1.0]hexan-6-yl)acetic acid], 3.5%.
